PubChem BioAssay AID248 (DTP/NCI, 2004)
Where “and” joins values, the source holds several entries; their conditions need not be identical. Equal entries are not always repeated. Toxic doses and inconclusive results are not listed. Cut-off read from the data, not from the text of the source: active = T/C of 150% or more; inactive = T/C below 125%.

Test system: L1210 leukemia ip in BDF1 mice, survival T/C
Assay: NCI In Vivo Anticancer Drug Screen. Data for tumor model L1210 Leukemia (intraperitoneal) in B6D2F1 (BDF1) mice
Conditions: endpoint: mean survival time, higher = longer survival
Procedure, shortened: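 Transplantable tumor model; survival measured in treated vs vehicle control mice. Value = treated/control.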

[1] = dose: 50.0 mg/kg/injection, schedule: Q01DX001 (ip), vehicle: carboxymethylcellulose (CMC)
[2] = dose: 100.0 mg/kg/injection, schedule: Q01DX001 (ip), vehicle: carboxymethylcellulose (CMC)
[3] = dose: 200.0 mg/kg/injection, schedule: Q01DX001 (ip), vehicle: carboxymethylcellulose (CMC)
[4] = dose: 400.0 mg/kg/injection, schedule: Q01DX001 (ip), vehicle: carboxymethylcellulose (CMC)
[5] = dose: 50.0 mg/kg/injection, schedule: Q01DX001 (ip), vehicle: saline
[6] = dose: 100.0 mg/kg/injection, schedule: Q01DX001 (ip), vehicle: saline
[7] = dose: 200.0 mg/kg/injection, schedule: Q01DX001 (ip), vehicle: saline
[8] = dose: 100.0 mg/kg/injection, schedule: Q04DX003 (ip), vehicle: saline
[9] = dose: 200.0 mg/kg/injection, schedule: Q04DX003 (ip), vehicle: saline
[10] = dose: 400.0 mg/kg/injection, schedule: Q04DX003 (ip), vehicle: saline
[11] = dose: 100.0 mg/kg/injection, schedule: Q01DX001 (ip), vehicle: Klucel (hydroxypropylcellulose) (HPC)
[12] = dose: 100.0 mg/kg/injection, schedule: Q04DX003 (ip), vehicle: Klucel (hydroxypropylcellulose) (HPC)
[13] = dose: 200.0 mg/kg/injection, schedule: Q01DX001 (ip), vehicle: Klucel (hydroxypropylcellulose) (HPC)
[14] = dose: 200.0 mg/kg/injection, schedule: Q04DX003 (ip), vehicle: Klucel (hydroxypropylcellulose) (HPC)
[15] = dose: 400.0 mg/kg/injection, schedule: Q04DX003 (ip), vehicle: Klucel (hydroxypropylcellulose) (HPC)

Measured: T/C

COC(=O)Cc1oc(=O)n(-c2ccccc2)c(=O)c1C(=O)OC
inactive: dose: 12.5 mg/kg/injection, schedule: Q04DX002 (ip), vehicle: gum acacia 94 % of control | dose: 25.0 mg/kg/injection, schedule: Q04DX002 (ip), vehicle: gum acacia 116 % of control | dose: 50.0 mg/kg/injection, schedule: Q04DX002 (ip), vehicle: gum acacia 108 % of control

CCCc1nnn(S(=O)(=O)c2ccc([N+](=O)[O-])cc2)c1CCC
inactive: dose: 177.0 mg/kg/injection, schedule: Q01DX001 (ip), vehicle: other 88 % of control | dose: 266.0 mg/kg/injection, schedule: Q01DX001 (ip), vehicle: other 91 % of control | dose: 400.0 mg/kg/injection, schedule: Q01DX001 (ip), vehicle: other 96 % of control | dose: 600.0 mg/kg/injection, schedule: Q01DX001 (ip), vehicle: other 88 % of control

c1ccc(-c2[nH]c(-c3ccccc3)c(-c3ccccc3)c2-c2ccccc2)cc1
inactive: dose: 50.0 mg/kg/injection, schedule: Q01DX009 (ip), vehicle: saline with Tween-80 102 % of control | dose: 100.0 mg/kg/injection, schedule: Q01DX009 (ip), vehicle: saline with Tween-80 95 % of control | dose: 200.0 mg/kg/injection, schedule: Q01DX009 (ip), vehicle: saline with Tween-80 95 % of control

NC(=O)NC(=O)C(Cl)c1ccccc1 (configuration not stated)
inactive: [1] 103 % of control | [2] 97 % of control | [3] 103 % of control | [4] 101 % of control

CCN1CCCCCCCCCC(=N/O)/C(=N\O)C1
inactive: [5] 101 % of control | [6] 103 % of control | [7] 95 % of control

CCN(CC)CCCC(C)NC/C=C/CNC(C)CCCN(CC)CC (configuration not stated)
inactive: dose: 0.78 mg/kg/injection, schedule: Q01DX009 (ip), vehicle: water 104 % of control | dose: 6.25 mg/kg/injection, schedule: Q04DX003 (ip), vehicle: water 105 % of control | dose: 12.5 mg/kg/injection, schedule: Q04DX003 (ip), vehicle: water 92 % of control | dose: 25.0 mg/kg/injection, schedule: Q01DX009 (ip), vehicle: water 104 % of control | dose: 25.0 mg/kg/injection, schedule: Q04DX003 (ip), vehicle: water 103 % of control

C#CCOC1CCCCO1 (configuration not stated)
inactive: [8] 104 % of control

CS(=O)(=O)OCC(COS(C)(=O)=O)(COS(C)(=O)=O)COS(C)(=O)=O
inactive: dose: 100.0 mg/kg/injection, schedule: Q04DX002 (ip), vehicle: Klucel (hydroxypropylcellulose) (HPC) 96 % of control | dose: 200.0 mg/kg/injection, schedule: Q04DX002 (ip), vehicle: Klucel (hydroxypropylcellulose) (HPC) 92 % of control | dose: 400.0 mg/kg/injection, schedule: Q04DX002 (ip), vehicle: Klucel (hydroxypropylcellulose) (HPC) 107 % of control

C[Si](C)(C)Cc1ccccc1
inactive: [1] 93 % of control | [3] 95 % of control

CC(O)CCc1ccccc1O (configuration not stated)
inactive: dose: 100.0 mg/kg/injection, schedule: Q04DX002 (ip), vehicle: saline with Tween-80 98 % of control | dose: 200.0 mg/kg/injection, schedule: Q04DX002 (ip), vehicle: saline with Tween-80 91 % of control | dose: 400.0 mg/kg/injection, schedule: Q04DX002 (ip), vehicle: saline with Tween-80 98 % of control

CC1COCC(C)N1CCC(=O)Nc1ccc(S(=O)(=O)c2ccc(NC(=O)CCN3C(C)COCC3C)cc2)cc1 (configuration not stated)
inactive: [2] 107 % of control | [3] 104 % of control | [4] 101 % of control

COc1ccc(C2NC(=O)NC2=O)cc1OC (configuration not stated)
inactive: dose: 25.0 mg/kg/injection, schedule: Q01DX009 (ip), vehicle: saline sonified 98 % of control | [5] 102 % of control | dose: 50.0 mg/kg/injection, schedule: Q01DX009 (ip), vehicle: saline sonified 106 % of control | [6] 105 % of control | dose: 100.0 mg/kg/injection, schedule: Q01DX009 (ip), vehicle: saline sonified 101 % of control | [8] 95 % of control | [7] 105 % of control | [9] 103 % of control | dose: 400.0 mg/kg/injection, schedule: Q01DX001 (ip), vehicle: saline 105 % of control | [10] 97 % of control

C/C=C/CC1(CC(C)C)C(=O)NC(=S)NC1=O
inactive: dose: 75.0 mg/kg/injection, schedule: Q01DX001 (ip), vehicle: saline 102 % of control | dose: 150.0 mg/kg/injection, schedule: Q01DX001 (ip), vehicle: saline 94 % of control | dose: 300.0 mg/kg/injection, schedule: Q01DX001 (ip), vehicle: saline 99 % of control

S=c1nc[nH]c2c1ncn2-n1cccc1
inactive: dose: 100.0 mg/kg/injection, schedule: Q01DX001 (ip), vehicle: saline with Tween-80 97 % of control | dose: 100.0 mg/kg/injection, schedule: Q04DX003 (ip), vehicle: saline with Tween-80 103 % of control | dose: 200.0 mg/kg/injection, schedule: Q01DX001 (ip), vehicle: saline with Tween-80 87 % of control | dose: 200.0 mg/kg/injection, schedule: Q04DX003 (ip), vehicle: saline with Tween-80 98 % of control | dose: 400.0 mg/kg/injection, schedule: Q01DX001 (ip), vehicle: saline with Tween-80 92 % of control | dose: 400.0 mg/kg/injection, schedule: Q04DX003 (ip), vehicle: saline with Tween-80 98 % of control

COc1ccc(CSc2ncnc3nc[nH]c23)cc1
inactive: dose: 6.0 mg/kg/injection, schedule: Q01DX015 (ip), vehicle: carboxymethylcellulose (CMC) 92 % of control | dose: 12.0 mg/kg/injection, schedule: Q01DX015 (ip), vehicle: carboxymethylcellulose (CMC) 91 % of control | dose: 25.0 mg/kg/injection, schedule: Q01DX015 (ip), vehicle: carboxymethylcellulose (CMC) 101 % of control | dose: 50.0 mg/kg/injection, schedule: Q01DX015 (ip), vehicle: carboxymethylcellulose (CMC) 101 % of control | dose: 200.0 mg/kg/injection, schedule: Q01DX015 (ip), vehicle: carboxymethylcellulose (CMC) 111 % of control

NC(=O)Cc1ccc2c(c1)[nH]c1ccccc12
inactive: [11] 96 % of control | [12] 102 % of control | [13] 94 % of control | [14] 105 % of control | dose: 400.0 mg/kg/injection, schedule: Q01DX001 (ip), vehicle: Klucel (hydroxypropylcellulose) (HPC) 100 % of control | [15] 103 % of control

Cc1cccc(NC(=O)c2ccc(Cl)cc2)c1C
inactive: dose: 100.0 mg/kg/injection, schedule: Q01DX009 (ip), vehicle: Klucel (hydroxypropylcellulose) (HPC) 99 % of control | [8] 111 % of control | dose: 200.0 mg/kg/injection, schedule: Q01DX009 (ip), vehicle: Klucel (hydroxypropylcellulose) (HPC) 95 % of control | [9] 104 % of control | dose: 400.0 mg/kg/injection, schedule: Q01DX009 (ip), vehicle: Klucel (hydroxypropylcellulose) (HPC) 95 % of control | [10] 109 % of control

CSc1ncnc2c1ncn2NCC1OC(C)OCC1O (configuration not stated)
inactive: [11] 96 % of control | [13] 98 % of control

O=c1ccc2cc(Br)ccc2o1
inactive: [12] 97 % of control | [14] 95 % of control | [15] 97 % of control

CCC[CH2][Sn]([Br])([CH2]CCC)[CH2]CCC
inactive: dose: 3.13 mg/kg/injection, schedule: Q01DX009 (ip), vehicle: carboxymethylcellulose (CMC) 93 % of control and 103 % of control | dose: 6.25 mg/kg/injection, schedule: Q01DX009 (ip), vehicle: carboxymethylcellulose (CMC) 103 % of control (2×) and 104 % of control | dose: 6.25 mg/kg/injection, schedule: Q04DX003 (ip), vehicle: carboxymethylcellulose (CMC) 96 % of control | dose: 12.5 mg/kg/injection, schedule: Q01DX009 (ip), vehicle: carboxymethylcellulose (CMC) 93 % of control and 101 % of control and 103 % of control | dose: 12.5 mg/kg/injection, schedule: Q04DX002 (ip), vehicle: carboxymethylcellulose (CMC) 92 % of control and 103 % of control | dose: 12.5 mg/kg/injection, schedule: Q04DX003 (ip), vehicle: carboxymethylcellulose (CMC) 107 % of control | dose: 25.0 mg/kg/injection, schedule: Q04DX002 (ip), vehicle: carboxymethylcellulose (CMC) 93 % of control and 98 % of control

CC1(C)SCC(C(=O)N2CCCC2C(=O)OC2CCCCC2)N1C=O (configuration not stated)
inactive: [8] 92 % of control | [10] 97 % of control

Cc1ncn[nH]1
inactive: dose: 100.0 mg/kg/injection, schedule: Q04DX002 (ip), vehicle: saline 96 % of control | dose: 200.0 mg/kg/injection, schedule: Q04DX002 (ip), vehicle: saline 100 % of control | dose: 400.0 mg/kg/injection, schedule: Q04DX002 (ip), vehicle: saline 89 % of control
